The source of these data is publication PMC5155426, “Organic Redox Species in Aqueous Flow Batteries: Redox Potentials, Chemical Stability and Solubility” (Scientific Reports, 2016).

Values after ≈ are worked out from the molar mass of the structure shown. Values joined by “and” are separate entries in the source; they are usually repeats but may differ in a detail not shown here. Equal values may be shown once. “Also recorded” adds a separate entry of the source.

A short description of data set [1]: Visual inspection of dissolved samples on standing (thixotropy, phase separation). It counts as physicochemical. The protocol:
Dissolved samples were left to stand for 12 hours and visually inspected for thixotropy using a vortex generator. For very insoluble compounds the amount of sample was decreased to 0.01 g and the dissolution time increased up to 24 h.
In practical RFBs thixotropy is not wanted, as the redox solutions can be kept still for long times. […] Thixotropy of AQ dyes in aqueous dispersions has been described earlier, as well as some methods to overcome the problem such as addition of polyvinylpyrrolidone to the solution[43].

The nature of data set [2]: Cyclic voltammetry: formal redox potential, peak current ratio, electrochemical reversibility. The conditions noted are these: for formal redox potential E0': midpoint of CV peak potentials; for change of E0' from acidic (pH 0) to alkaline (pH 13): 13 pH units; for pH dependence (slope) of E0': pH 0 to pH 13. It counts as physicochemical. The protocol:
The investigated compounds were used as-purchased and without any purification. […] For each series of CVs, a freshly polished electrode was used. The CVs for soluble compounds in 1 mM concentration were recorded in a glass beaker with a customized lid in nitrogen purged solutions of three different pHs, namely pH 0 (1 M H2SO4), pH 7 (0.5 M phosphate buffer) and pH 13 (1 M NaOH). The pH of the NaOH solution is taken as 13 to account for carbonization of the solution with exposure to air. A background CV was recorded before each CV experiment to exclude background contaminations. The CVs of insoluble compounds in 1 M H2SO4, or 0.5 M phosphate buffer were recorded as follows: 6 mL of the supporting electrolyte was mixed with approximately 4 mL of acetone, and then a small amount of the quinone was added so that its concentration was around 1 mM.
Each CV was analyzed in terms of peak potentials and peak currents. Peak currents were determined by subtracting a polynomial fit of the background from the recorded current as exemplified in Supplementary, S1. A plot of the absolute values of the peak currents to the square root of the scan rate was constructed and, when reasonable, a linear fit included to evaluate the electrochemical (Nernstian) reversibility of the electrochemical reaction. The peak current Ip for reversible reactions are given by equation (1).
Where F is the Faraday constant, R the gas constant, T the temperature, n the number of electron transferred, A the area of the electrode, DOthe diffusion coefficient and CO^*the bulk concentration of the analyte and v the scan rate. The peak current ratio is expected to be close to one for reversible species. The formal redox potential (E^0’), which is the adjusted form of the standard redox potential, where effects of the medium is taken into account, is reported here as the midpoint potential between the two peak potentials in the CV[24]. All half-cell potentials in this work refer to the normal hydrogen electrode (VNHE).

The nature of data set [3]: Aqueous solubility estimation (OECD test #105) in 1 M supporting electrolytes. The protocol: After each addition the test tube was ultrasonicated and/or shaken vigorously using a Vortex Generator for at least 10 minutes at room temperature. Then the tube was inspected visually for undissolved sample and the addition of supporting electrolyte solution continued until the sample seemed just dissolved. The volumes just before and after full dissolution are used for calculating the solubility interval (Supplementary, S4 and S5) and the solubility is estimated as the average between the two.

[4] abbreviates: pH 0 (1 M H2SO4), about 1 mM, acetone added for insoluble compounds.
[5] abbreviates: 1 M H2SO4 supporting electrolyte prepared from MilliQ water, aqueous buffer, thermodynamic from solid, Solubility, 1 M H2SO4, room temperature, interval just after / before full dissolution.
[6] abbreviates: 1 M KCl supporting electrolyte prepared from MilliQ water, saline or isotonic, thermodynamic from solid, Solubility, 1 M KCl, room temperature.
Setting [7] is: 1 M KOH supporting electrolyte prepared from MilliQ water, aqueous buffer, thermodynamic from solid, Solubility, 1 M KOH, room temperature.

On to `O=C1c2ccccc2C(=O)c2c1ccc(O)c2O` [AQDH(1,2), 1,2-dihydroxy-9,10-anthraquinone], for which, in data set [1] (in KOH (1 M)), the “Comment: behaviour of the solution upon standing” value (“Comment: behaviour” for short) is “T hixotropic; also recorded: thixotropy was observed”. Further, the Peak current ratio in data set [2] (pH 0) is listed as 0.73(7); in data set [2] (pH 7) it was 0.5(1); in data set [2] (pH 13), 1.2(1). Moreover, in data set [2] (setting [4]), the “formal redox potential E0'” value was 0.005(4) VNHE. Besides, the Electrochemical reversibility result in data set [2] (pH 13) is “Quasireversible”. In addition, the solubility in data set [3] (setting [5]) and in data set [3] (setting [6]) was less than 10 mM throughout.
As to `O=C1c2ccccc2C(=O)c2c(O)ccc(O)c21` [AQDH(1,4), 1,4-dihydroxy-9,10-anthraquinone], the “Comment: behaviour” value in data set [1] (in KOH (1 M)) is on record as “T hixotropic; also recorded: thixotropy was observed”. Further, the figures for the Peak current ratio in data set [2] (pH 0), in data set [2] (pH 7) and in data set [2] (pH 13) were 0.6(1), 0.4(2) and 1.05(3), respectively. The Electrochemical reversibility result in data set [2] (pH 13) was “Reversible”. The solubility in data set [3] (setting [5]) and in data set [3] (setting [6]) was less than 10 mM throughout.
For the molecule `O=C1c2cccc(O)c2C(=O)c2c(O)cc(CO)cc21` [AQDH(1,8)MH, 1,8-dihydroxy-3-(hydroxymethyl)-9,10-anthraquinone], the “Comment: behaviour” value in data set [1] (in KOH (1 M)) was “thixotropy was observed”; in data set [1] (in KOH (1 M), listed as AQDG(1,8)MH) it was “T hixotropic behavior”. Besides, the Peak current ratio in data set [2] (pH 0) is 0.58(4); in data set [2] (pH 7), 0.51(4); in data set [2] (pH 13), 1.03(1). Moreover, the Electrochemical reversibility result in data set [2] (pH 13) was “Reversible”. For the same molecule, the solubility in data set [3] (setting [5]) and in data set [3] (setting [6]) was less than 10 mM each time.
For `O=C(O)c1cc(O)c2c(c1)C(=O)c1cccc(O)c1C2=O` [AQDH(4,5)CA, 4,5-dihydroxy-9,10-anthraquinone-2-carboxylic acid], the “Comment: behaviour” value is on record as “thixotropy was observed” in data set [1] (in KOH (1 M)) and “T hixotr opic behavior” in data set [1] (in KOH (1 M), listed as AQDH(4,5)C A). Also, the Peak current ratio is given as 0.39(6) in data set [2] (pH 0), 0.69(8) in data set [2] (pH 7) and 1.23(7) in data set [2] (pH 13). Further, the “formal redox potential E0'” value in data set [2] (setting [4]) is given as 0.041(9) VNHE; in data set [2] (pH 7 (0.5 M phosphate buffer)), -0.267(1) VNHE; in data set [2] (pH 13 (1 M NaOH)), “around −0.53 VNHE”; in data set [2] (pH 13 (1 M NaOH), listed as AQDH(4,5)C A), -0.546(2) VNHE. In addition, the values for the Electrochemical reversibility result in data set [2] (pH 7) and in data set [2] (pH 13) were “Quasireversible” and “Reversible”, respectively. Further, the solubility in data set [3] (setting [5]) and in data set [3] (setting [6]) was less than 10 mM in each case.
For `O=C1c2cccc(S(=O)(=O)[O-])c2C(=O)c2cccc(S(=O)(=O)[O-])c21.[Na+].[Na+]` [AQDS(1,5), 9,10-anthraquinone-1,5-disulfonate disodium], the “Comment: behaviour” value in data set [1] (electrolyte not stated) is reported as “Phase separation”. Also, the Electrochemical reversibility result is “Quasireversible” in data set [2] (pH 0), “Quasireversible” in data set [2] (pH 7) and “Reversible” in data set [2] (pH 13). Besides, the results for the Peak current ratio in data set [2] (pH 0), in data set [2] (pH 7) and in data set [2] (pH 13) were 1.7(1), 0.49(3) and 1.17(4), respectively. In data set [2] (setting [4]), the “formal redox potential E0'” value is −0.03 VNHE. Further, the solubility in data set [3] (setting [7]) is less than 10 mM. Further, the “solubility compared with AQDS(2,7) and AQS(2)” value in data set [3] (sulfonated AQs) is recorded as “more than ten times lower solubility”.
As for `O=C1c2ccccc2C(=O)c2cc(S(=O)(=O)O)ccc21` [AQS(2), 9,10-anthraquinone-2-sulfonate sodium], in data set [1] (electrolyte not stated), the “Comment: behaviour” value was “Phase separation”. For the same molecule, the figures for the Peak current ratio in data set [2] (pH 0), in data set [2] (pH 7) and in data set [2] (pH 13) were 1.0(1), 0.88(1) and 1.2(2), respectively. The “formal redox potential E0'” value in data set [2] (setting [4]) was 0.163(3) VNHE and 0.163 VNHE; in data set [2] (pH 13 (1 M NaOH)), -0.334(3) VNHE. In addition, in data set [2] (pH not specified), the Electrochemical reversibility result is on record as “Reversible”.
As to `O=C1C=C(S(=O)(=O)O)c2ccccc2C1=O` [NQ(1,2)S, 1,2-naphtoquinone-4-sulfonate sodium], the Peak current ratio is listed as 0.8(1) in data set [2] (pH 0), 0.52(3) in data set [2] (pH 7) and 0.9(1) in data set [2] (pH 13). Further, the “formal redox potential E0'” value in data set [2] (setting [4]) was 0.55(1) VNHE; in data set [2] (pH 7 (0.5 M phosphate buffer)), 0.24(1) VNHE. For the same molecule, the Electrochemical reversibility result in data set [2] (pH not specified) is given as “Quasireversible”. The solubility in data set [3] (setting [6]) is roughly 10 mM; in data set [3] (setting [7]), 900 mM.
For the molecule `O=C1C(Cl)=C(Cl)C(=O)c2c(O)ccc(O)c21` [NQ(1,4)DHDCl, 2,3-dichloro-5,8-dihydroxy-1,4-naphtoquinone], in data set [2] (pH 13 (1 M NaOH)), the “formal redox potential E0'” value was “≈ 0.4 VNHE”. Besides, in data set [2] (pH not specified), the Electrochemical reversibility entry is given as “electrochemically irreversible”. Further, the solubility in data set [3] (setting [5]), in data set [3] (setting [6]) and in data set [3] (setting [7]) was less than 10 mM each time. Besides, the “aqueous solubility, qualitative” value in data set [3] (water / supporting electrolytes as worded) was “insoluble in water”.
For `O=C1C=C(O)C(=O)c2ccccc21` [NQ(1,4)H, 2-hydroxy-1,4-naphtoquinone], the “change of E0' from acidic (pH 0) to alkaline (pH 13)” value in data set [2] worked out at 0.8 V. The Peak current ratio in data set [2] (pH 0) is given as 0.81(8); in data set [2] (pH 7) it was 1.2(3); in data set [2] (pH 13), 0.73(6). In data set [2] (setting [4]), the “formal redox potential E0'” value was 0.308(4) VNHE. The “pH dependence (slope) of E0'” value in data set [2] stood at 67 mV/pH unit. In addition, the values for the Electrochemical reversibility entry in data set [2] (pH 13) and in data set [2] (pH not specified) were “seemingly reversible” and “Quasireversible”, respectively. Also, the solubility in data set [3] (setting [5]) is less than 10 mM; in data set [3] (setting [6]), less than 10 mM; in data set [3] (setting [7]), 820 mM (≈ 143000 µg/mL).
As to `CC(C)=CCC1=C(O)C(=O)c2ccccc2C1=O` [NQ(1,4)HB, 2-hydroxy-3-(3-methyl-2-butenyl)-1,4-naphthoquinone], in data set [2], the “change of E0' from acidic (pH 0) to alkaline (pH 13)” value amounted to 0.8 V. The Electrochemical reversibility entry in data set [2] (pH 0) was “Quasireversible”; in data set [2] (pH 7) it was “Reversible”; in data set [2] (pH 13) it was “Quasireversible”. For the same molecule, the “formal redox potential E0'” value in data set [2] (setting [4]) is 0.333(3) VNHE. In addition, the “pH dependence (slope) of E0'” value in data set [2] is 67 mV/pH unit. The Peak current ratio is 1.08(5) in data set [2] (pH 7) and 0.38(4) in data set [2] (pH 13). In addition, the solubility in data set [3] (setting [5]) is less than 10 mM; in data set [3] (setting [6]) it was less than 10 mM; in data set [3] (setting [7]) it was 700 mM (≈ 170000 µg/mL).
For `c1ccc2nc3ccccc3nc2c1` [Phenazine], the results for the “formal redox potential E0'” value in data set [2] (setting [4]), in data set [2] (pH 7 (0.5 M phosphate buffer)) and in data set [2] (pH 13 (1 M NaOH)) were 0.403(3) VNHE, “Unstable” and “Unstable”, respectively. Further, the solubility in data set [3] is less than 10 mM; in data set [3] (aqueous buffer, thermodynamic from solid, Solubility) it was 10 mM (≈ 1800 µg/mL); in data set [3] (saline or isotonic, thermodynamic from solid, Solubility) it was less than 10 mM.
Consider `c1cnccn1` [Pyrazine, 1,4-diazine], for which the results for the “formal redox potential E0'” value in data set [2] (setting [4]), in data set [2] (pH 7 (0.5 M phosphate buffer)) and in data set [2] (pH 13 (1 M NaOH)) were -0.013(2) VNHE, “Unstable” and “Unstable”, respectively. Besides, the solubility in data set [3] (setting [5]), in data set [3] (setting [6]) and in data set [3] (setting [7]) was roughly 7000 mM (≈ 561000 µg/mL) in each case.
As to `O=C(O)c1cnccn1` [Pyrazine-2-carboxylic acid], the “formal redox potential E0'” value in data set [2] (setting [4]) is recorded as -0.013(3) VNHE; in data set [2] (pH 7 (0.5 M phosphate buffer)) it was “Unstable”; in data set [2] (pH 13 (1 M NaOH)), “Unstable”. The solubility in data set [3] (setting [5]) is 70 mM (≈ 8690 µg/mL); in data set [3] (setting [6]), 80 mM (≈ 9930 µg/mL); in data set [3] (setting [7]), 900 mM (≈ 112000 µg/mL).
